In patent US8664380B2, “Heterocyclic compound and use thereof” (Takeda Pharmaceutical Company Limited, priority 2008, dated 2014) one finds inhibition data, which are given here for ten compounds.

Counter-ions that a name gives are not always drawn.

This assay deals with plasma renin activity. Description: Ex vivo plasma renin activity (PRA) test after oral administration. Type of assay: in vivo, Macaca fascicularis. As to conditions: Macaca fascicularis, po, 4 h, read-out: Macaca fascicularis plasma renin activity, PPA inhibitory activity (%, n = 3-7). How it is done: Male macaca fascicularis was used. […] PRA was calculated by the following formula.
In the case of `COCCCCn1c(C(=O)N(CC(C)C)[C@@H]2CNC[C@H](C(=O)OCc3oc(=O)oc3C)C2)nc2ccccc21` [Example 7, (5-methyl-2-oxo-1,3-dioxol-4-yl)methyl (3R,5S)-5-[{[1-(4-methoxybutyl)-1H-benzimidazol-2-yl]carbonyl}(2-methylpropyl)amino]piperidine-3-carboxylate dihydrochloride], the inhibition at 1 mg/kg was determined as 93%. With `COCCCCn1c(C(=O)N(CC(C)C)[C@@H]2CNC[C@H](C(=O)N3CCOCC3)C2)nc2ccc(F)cc21` [Example 11, 6-fluoro-1-(4-methoxybutyl)-N-(2-methylpropyl)-N-[(3S,5R)-5-(morpholin-4-ylcarbonyl)piperidin-3-yl]-1H-benzimidazole-2-carboxamide dihydrochloride], the inhibition at 1 mg/kg stood at 89%.

As to `COCCCCn1c(C(=O)N(CC(C)C)[C@@H]2CNC[C@H](C(=O)N3CCCC3)C2)nc2cc(F)ccc21` [Example 18, 5-fluoro-1-(4-methoxybutyl)-N-(2-methylpropyl)-N-[(3S,5R)-5-(pyrrolidin-1-ylcarbonyl)piperidin-3-yl]-1H-benzimidazole-2-carboxamide dihydrochloride], the inhibition at 1 mg/kg was determined as 89%. Turning to `COCCCCn1c(C(=O)N(CC(C)C)[C@@H]2CNC[C@H](C(=O)N3CCCCC3)C2)nc2ccccc21` [Example 21, 1-(4-methoxybutyl)-N-(2-methylpropyl)-N-[(3S,5R)-5-(piperidin-1-ylcarbonyl)piperidin-3-yl]-1H-benzimidazole-2-carboxamide dihydrochloride], the inhibition at 1 mg/kg came out at 85%. As for `COCCCCn1c(C(=O)N(CC(C)C)[C@@H]2CNC[C@H](C(=O)O)C2)nc2ccccc21` [Example 33, (3R,5S)-5-[{[1-(4-methoxybutyl)-1H-benzimidazol-2-yl]carbonyl}(2-methylpropyl)amino]piperidine-3-carboxylic acid dihydrochloride], the inhibition at 1 mg/kg worked out at 77%. As for `COCCCCn1c(C(=O)N(CC(C)C)[C@@H]2CNC[C@H](C(C)O)C2)nc2ccccc21` (stereo partly drawn) [Example 42, N-[(3S,5R)-5-(1-hydroxyethyl)piperidin-3-yl]-1-(4-methoxybutyl)-N-(2-methylpropyl)-1H-benzimidazole-2-carboxamide dihydrochloride], the inhibition at 1 mg/kg was 70%.

As for `COCCCCn1c(C(=O)N(CC(C)C)[C@@H]2CNC[C@H](C(=O)N3CCOCC3)C2)nc2ccc(OC)cc21` [Example 60, 6-methoxy-1-(4-methoxybutyl)-N-(2-methylpropyl)-N-{(3S,5R)-5-(morpholin-4-ylcarbonyl)piperidin-3-yl}-1H-benzimidazole-2-carboxamide dihydrochloride], the inhibition at 1 mg/kg was found to be 85%. For the compound `COCCCCn1c(C(=O)N(CC(C)C)[C@@H]2CNC[C@H](C(=O)N3CCCC3)C2)nc2ccc(OC)cc21` [Example 62, 6-methoxy-1-(4-methoxybutyl)-N-(2-methylpropyl)-N-{(3S,5R)-5-(pyrrolidin-1-ylcarbonyl)piperidin-3-yl}-1H-benzimidazole-2-carboxamide dihydrochloride], the inhibition at 1 mg/kg worked out at 75%. For the compound `CCC(O)[C@H]1CNC[C@@H](N(CC(C)C)C(=O)c2nc3ccccc3n2CCCCOC)C1` (stereo partly drawn) [Example 76, N-[(3S, 5R)-5-(1-hydroxypropyl)piperidin-3-yl]-1-(4-methoxybutyl)-N-(2-methylpropyl)-1H-benzimidazole-2-carboxamide dihydrochloride], the inhibition at 1 mg/kg came out at 79%. The figure for `COCCCCn1c(C(=O)N(CC2CC2)[C@@H]2CNC[C@H](C(=O)N3CCOCC3)C2)nc2ccccc21` [Example 253, N-(cyclopropylmethyl)-1-(4-methoxybutyl)-N-[(3S,5R)-5-(morpholin-4-ylcarbonyl)piperidin-3-yl]-1H-benzimidazole-2-carboxamide dihydrochloride] is 77%.
